Series [1] concerns HBV. The series is described as follows: Anti-HBV activity in HepG2.117 cell line (Tet-off, intracellular HBV DNA, realtime PCR). Type of series: cell-based. As to conditions: Hepatitis B virus, HepG2.117, 72 h.
The subject of series [2] is HBV. Nature of the series: Anti-HBV activity in stable transfected HepG2.2.15 cell line (HBV DNA from secreted virions, realtime PCR). Type of series: cell-based. The settings on record: Hepatitis B virus, HepG2.2.15, 144 h.
Series [3] can be described thus: Cytotoxicity in HepG2 cells, 4 days, Resazurin assay. As to conditions: human, HepG2 cells.
Where [4] appears, read: HepG2.117 cells, 3 days of treatment, intracellular HBV DNA, read-out: HepG2 117 EC50.
[5] abbreviates: HepG2.2.15 cells, 6 days of treatment, secreted virion HBV DNA, read-out: HepG2 2.15 EC50.

By EC50 is commonly meant the concentration that produces a half-maximal response. Broadly, the CC50 is the concentration giving 50% cytotoxicity. As to `CC1(NS(=O)(=O)c2cccc(C(=O)Nc3ccc(F)c(CF)c3)c2)COC1` [Compound 127], the EC50 in the series on HBV [1] (setting [4]) came to 0.58 µM; in the series with HBV [2] (setting [5]), 0.23 µM. The molecule further showed a 50% cytotoxic concentration (CC50) at 4 days in series [3] of more than 25000 nM.
The like results for `Cc1cc(NC(=O)c2cccc(S(=O)(=O)NC3CC4CCC3O4)c2)ccc1F` (stereo not drawn) [Compound 128] were, in that order, 0.54 µM, 0.23 µM and more than 25000 nM.
The like results for `Cc1cc(NC(=O)c2cccc(S(=O)(=O)N[C@@H]3CCOC3)c2)ccc1F` [Compound 129] were, in that order, 0.78 µM, 0.35 µM and more than 25000 nM.
In the same order, the values of `Cc1cc(NC(=O)c2cccc(S(=O)(=O)N[C@H]3CCCC[C@@H]3O)c2)ccc1F` [Compound 131] are 1.74 µM, 2.63 µM and more than 25000 nM.
As for `Cc1cc(NC(=O)c2cccc(S(=O)(=O)N[C@H]3CC[C@H](O)CC3)c2)ccc1F` [Compound 133], the EC50 amounted to 1.69 µM in the series with HBV [1] (setting [4]) and 0.6 µM with HBV [2] (setting [5]). In series [3], this molecule yielded a CC50 at 4 days of more than 25000 nM.
In the same order, the values of `Cc1cc(NC(=O)c2cccc(S(=O)(=O)N3CC4(COC4)C3)c2)ccc1F` [Compound 135] are 0.36 µM, 0.56 µM and more than 25000 nM.
In the same order, the values of `Cc1cc(NC(=O)c2cccc(S(=O)(=O)N[C@@H]3c4ccccc4C[C@@H]3O)c2)ccc1F` [Compound 136] are 0.81 µM, 0.47 µM and more than 25000 nM.
In the same order, the values of `Cc1cc(NC(=O)c2cccc(S(=O)(=O)N[C@@H]3CCc4ccccc4[C@@H]3O)c2)ccc1F` [Compound 137] are 0.92 µM, 0.66 µM and 23700 nM.
On to `Cc1cc(NC(=O)c2cccc(S(=O)(=O)N[C@H]3CCC[C@@H]3O)c2)ccc1F` [Compound 138], for which the concentration for a half-maximal effect (EC50) with HBV [1] (setting [4]) was found to be 2.27 µM; in the series with HBV [2] (setting [5]) it was 1.28 µM. The molecule also yielded a 50% cytotoxic concentration (CC50) at 4 days in series [3] of more than 25000 nM.
The like results for `Cc1cc(NC(=O)c2cccc(S(=O)(=O)N[C@H]3CCC[C@H]3O)c2)ccc1F` [Compound 139] were, in that order, 1.75 µM, 1 µM and more than 25000 nM.
As for `Cc1cc(NC(=O)c2cccc(S(=O)(=O)NC3CCS(=O)(=O)C3)c2)ccc1F` (stereo not drawn) [Compound 140], the values for the EC50 with HBV [1] (setting [4]) and in the series on HBV [2] (setting [5]) were 1.12 µM and 1.1 µM, respectively. In series [3], this molecule came in with a cytotoxic concentration (CC50) at 4 days of more than 25000 nM.
In the same order, the values of `Cc1cc(NC(=O)c2cccc(S(=O)(=O)NC3Cc4ccccc4C3O)c2)ccc1F` (stereo not drawn) [Compound 141] are 0.6 µM, 0.36 µM and more than 25000 nM.
The like results for `Cc1cc(NC(=O)c2cccc(S(=O)(=O)N[C@H](C)[C@H](O)c3ccccc3)c2)ccc1F` [Compound 142] were, in that order, 0.56 µM, 0.14 µM and more than 25000 nM.
In the same order, the values of `Cc1cc(NC(=O)c2cccc(S(=O)(=O)N[C@@H](C)[C@H](O)c3ccccc3)c2)ccc1F` [Compound 143] are 2.66 µM, 0.91 µM and more than 25000 nM.
Take `Cc1cc(NC(=O)c2cccc(S(=O)(=O)N[C@H](C)[C@@H](O)c3ccccc3)c2)ccc1F` [Compound 144]: the concentration for a half-maximal effect (EC50) with HBV [1] (setting [4]) came out at 0.24 µM; in the series with HBV [2] (setting [5]) it was 0.13 µM. In series [3], this molecule had a 50% cytotoxic concentration (CC50) at 4 days of more than 25000 nM.
In the same order, the values of `Cc1cc(NC(=O)c2cccc(S(=O)(=O)NC3CCC(O)C3)c2)ccc1F` (stereo not drawn) [Compound 145] are 0.27 µM, 0.22 µM and more than 25000 nM.
The like results for `Cc1cc(NC(=O)c2cccc(S(=O)(=O)N3CC4(CCOC4)C3)c2)ccc1F` [Compound 146] were, in that order, 0.42 µM, 0.45 µM and more than 25000 nM.
Turning to `Cc1cc(NC(=O)c2cccc(S(=O)(=O)N3CCC34COC4)c2)ccc1F` [Compound 147], the values for the 50% effective concentration (EC50) in the series on HBV [1] (setting [4]) and with HBV [2] (setting [5]) were 0.15 µM and 0.26 µM, respectively. Further, in series [3], the CC50 at 4 days was more than 25000 nM.
The like results for `Cc1cc(NC(=O)c2cccc(S(=O)(=O)N[C@@H](C)C3CCCCC3)c2)ccc1F` [Compound 148] were, in that order, 3.11 µM, 0.9 µM and 18200 nM.
In the same order, the values of `Cc1cc(NC(=O)c2cccc(S(=O)(=O)NC3CCC(F)(F)CC3)c2)ccc1F` [Compound 149] are 0.73 µM, 0.22 µM and 20800 nM.
In the same order, the values of `C=CC(C)NS(=O)(=O)c1cccc(C(=O)Nc2ccc(F)c(C)c2)c1` (stereo not drawn) [Compound 150] are 0.73 µM, 0.1 µM and more than 25000 nM.
Consider `Cc1cc(NC(=O)c2cccc(S(=O)(=O)N[C@@H](C)C(C)C)c2)ccc1F` [Compound 151], for which the EC50 was 2.74 µM in the series on HBV [1] (setting [4]) and 0.66 µM in the series on HBV [2] (setting [5]). In series [3], this molecule yielded a 50% cytotoxic concentration (CC50) at 4 days of more than 25000 nM.
In the same order, the values of `Cc1cc(NC(=O)c2cccc(S(=O)(=O)N[C@H](C)C3CC3)c2)ccc1F` [Compound 152] are 0.57 µM, less than 0.1 µM and more than 25000 nM.
The like results for `Cc1cc(NC(=O)c2cccc(S(=O)(=O)NC(C)CCc3ccccc3)c2)ccc1F` (stereo not drawn) [Compound 153] were, in that order, 0.25 µM, 0.22 µM and more than 25000 nM.
The like results for `Cc1cc(NC(=O)c2cccc(S(=O)(=O)NC3CCCN(C(=O)OC(C)(C)C)C3)c2)ccc1F` (stereo not drawn) [Compound 155] were, in that order, 0.81 µM, 0.36 µM and more than 25000 nM.
For the molecule `Cc1cc(NC(=O)c2cccc(S(=O)(=O)NC3CCN(C(=O)OC(C)(C)C)C3)c2)ccc1F` (stereo not drawn) [Compound 156], the concentration for a half-maximal effect (EC50) came to 0.21 µM in the series on HBV [1] (setting [4]) and 0.19 µM in the series with HBV [2] (setting [5]). The CC50 at 4 days in series [3] is more than 25000 nM.
The like results for `COC(=O)N1CC(C)(NS(=O)(=O)c2cccc(C(=O)Nc3ccc(F)c(C)c3)c2)C1` [Compound 157] were, in that order, 0.23 µM, 0.13 µM and more than 25000 nM.
In the same order, the values of `COC(=O)N1CCC(NS(=O)(=O)c2cccc(C(=O)Nc3ccc(F)c(C)c3)c2)C1` (stereo not drawn) [Compound 158] are 0.5 µM, 0.15 µM and more than 25000 nM.
Consider `CC1(NS(=O)(=O)c2cccc(C(=O)Nc3ccc(F)c(Br)c3)c2)COC1` [Compound 160, N-(3-bromo-4-fluoro-phenyl)-3-[(3-methyloxetan-3-yl)sulfamoyl]benzamide], for which the results for the EC50 in the series on HBV [1] (setting [4]) and in the series with HBV [2] (setting [5]) were 0.69 µM and 0.2 µM, respectively. Besides, the CC50 at 4 days in series [3] is more than 25000 nM.
In the same order, the values of `Cc1cc(NC(=O)c2cccc(S(=O)(=O)NC(C)c3ccncc3)c2)ccc1F` (stereo not drawn) [Compound 161] are 0.35 µM, 0.2 µM and more than 25000 nM.
In the same order, the values of `Cc1cc(NC(=O)c2cccc(S(=O)(=O)NC(C)c3cccnc3)c2)ccc1F` (stereo not drawn) [Compound 162] are 1.26 µM, 0.17 µM and more than 25000 nM.
The like results for `Cc1cc(NC(=O)c2cccc(S(=O)(=O)NC(C)c3ccccn3)c2)ccc1F` (stereo not drawn) [Compound 163] were, in that order, 8.53 µM, 0.53 µM and more than 25000 nM.
In the case of `Cc1cc(NC(=O)c2cccc(S(=O)(=O)NC(C)C3CCN(C)CC3)c2)ccc1F` (stereo not drawn) [Compound 164], the EC50 amounted to 0.97 µM in the series with HBV [1] (setting [4]) and 3.71 µM in the series with HBV [2] (setting [5]). In series [3], this molecule had a 50% cytotoxic concentration (CC50) at 4 days of more than 25000 nM.
In the same order, the values of `Cc1cc(NC(=O)c2cccc(S(=O)(=O)NC(C)CCN3CCOCC3)c2)ccc1F` (stereo not drawn) [Compound 165] are 0.36 µM, 0.71 µM and more than 25000 nM.
In the same order, the values of `Cc1cc(NC(=O)c2cccc(S(=O)(=O)N[C@H](C)c3ccccc3)c2)ccc1F` [Compound 166] are 2.39 µM, 0.19 µM and 14600 nM.
In the same order, the values of `Cc1cc(NC(=O)c2cccc(S(=O)(=O)N[C@@H](C)c3ccccc3)c2)ccc1F` [Compound 167] are 9.84 µM, 0.62 µM and more than 25000 nM.
For `Cc1cc(NC(=O)c2cccc(S(=O)(=O)NC3Cc4ccccc4C3)c2)ccc1F` [Compound 168], the EC50 was found to be 0.37 µM with HBV [1] (setting [4]) and 0.27 µM in the series on HBV [2] (setting [5]). The same molecule gave a CC50 at 4 days in series [3] of 11800 nM.
Take `Cc1cc(NC(=O)c2cccc(S(=O)(=O)NC(C)Cc3ccccc3)c2)ccc1F` (stereo not drawn) [Compound 169]: the concentration giving a half-maximal response (EC50) in the series with HBV [1] (read-out: HepG2 117 EC50 (μM)) is 1.41 µM; in the series on HBV [2] (read-out: HepG2 2.15 EC50 (μM)), 0.24 µM. For the same molecule, the CC50 at 4 days in series [3] worked out at 14900 nM.
On to `Cc1cc(NC(=O)c2cccc(S(=O)(=O)NCCC3CC3)c2)ccc1F` [Compound 170], for which the EC50 came to 0.45 µM with HBV [1] (setting [4]) and 0.26 µM with HBV [2] (setting [5]). For the same molecule, the CC50 at 4 days in series [3] is more than 25000 nM.
In the same order, the values of `Cc1cc(NC(=O)c2cccc(S(=O)(=O)NC3COCC3O)c2)ccc1F` (stereo not drawn) [Compound 171] are 4.39 µM, 0.79 µM and more than 25000 nM.
In the same order, the values of `Cc1cc(NC(=O)c2cccc(S(=O)(=O)N[C@@H]3CCC[C@@H]3O)c2)ccc1F` [Compound 172] are 0.61 µM, 0.26 µM and more than 25000 nM.
In the same order, the values of `Cc1cc(NC(=O)c2cccc(S(=O)(=O)N[C@@H]3CCC[C@H]3O)c2)ccc1F` [Compound 173] are 0.36 µM, 0.37 µM and more than 25000 nM.
Take `Cc1cc(NC(=O)c2cccc(S(=O)(=O)N[C@@H](C)C3CC3)c2)ccc1F` [Compound 174]: the EC50 was found to be 2.84 µM in the series with HBV [1] (setting [4]) and 0.47 µM in the series on HBV [2] (setting [5]). This molecule showed a 50% cytotoxic concentration (CC50) at 4 days in series [3] of more than 25000 nM.

These data come from patent US10676429B2, “Sulfamoyl-arylamides and the use thereof as medicaments for the treatment of hepatitis B” (priority 2012, dated 2020).
